Reference: US20240285808A1, “MOLECULAR PROBES FOR IN VIVO DETECTION OF ALDEHYDES” (The General Hospital Corporation, priority 2021, published 2024)

Legend:
[1] = tested on: liver of bile duct ligated (BDL) rats; test: MR imaging of liver in bile duct ligated rat liver fibrosis model; assay type: in vivo; details: for ΔCNR of liver: 30 min post injection
Procedure: Rat Liver Fibrosis Model:
Liver fibrosis was induced in male Sprague Dawley rats (n=7) by ligation of the common bile duct (CD®, Charles River Labs, Wilmington, MA). Control animals (n=4) underwent a sham procedure. The BDL and sham rats were imaged 10 days following ligation with a dose of […] of Gd-9 based on body surface area.
T1-mapping was performed with a flow sensitive alternating inversion recovery (FAIR) sequence: repetition time/echo time=11000/33.8 ms; flip angle, 90°; inversion times: 100, 200, 400, 500, 600, 1000, 1500, 2000 ms; field of view, 60×60 mm^2; matrix size, 140×140; slice thickness, 2 mm; acquisition time, 3 minutes 34 seconds. T1 weighted imaging with 3D FLASH: repetition time/echo time=20/2.3 ms; flip angle, 30°; field of view, 60×60 mm^2; matrix size: 127×127; slice thickness, 0.5 mm; acquisition time, 3 minutes 10 seconds. Following the imaging session, animals were sacrificed (30 min p.i.) and liver tissue was subjected to histopathologic analysis.
Longitudinal relaxation rate (R1) maps were generated from the T1 mapping images using a custom written MATLAB (Mathworks, Natick, MA) program for voxel wise fitting of the inversion recovery signal intensities as a function of the inversion time. A region of interest (ROI) was manually traced encompassing the liver parenchyma while avoiding major blood vessels. ΔR1 was calculated by subtracting the R1Pre from R1Post, eq S3. ΔCNR were analyzed from 3D T1 weighted FLASH images, the same as that in mouse.

[2] = tested on: human fibrotic/cirrhotic liver associated with NASH and normal liver tissue; test: LA-ICP-MS gadolinium imaging of human liver sections incubated with Gd-9; assay type: binding
Procedure: Liver tissues were obtained from a total of 9 anesthetized patients who underwent surgical resection at Massachusetts General Hospital, and analyzed in accordance with a protocol approved by the Massachusetts General Hospital's Institutional Review Board.
Tissue Analysis for Human Tissues
The dissected tissues were immediately snap frozen in OCT using liquid nitrogen, sectioned into 10-μm-thick slices and stored at −80° C. Subsequently, the tissue sections were first allowed to warm to room temperature for 10 min and then fixed in 60% ethanol for 30 min, and washed with PBS. The following steps were the same as described above for the Sirius red staining and DNPH-reactivity assay.
LA-ICP-MS Gadolinium Imaging Analysis
Sample preparation. Harvested rat livers after MR imaging were immediately snapfrozen in OCT using liquid nitrogen, sectioned into 10-μm-thick slices, stored in −80° C. One slice was assessed by LA-ICP-MS directly. One adjacent slide was incubated with 0.1 mM Gd-9 at 37° C. for 2 h, followed with 0.2 mM NaBH3CN for 2 h and washed with PBS (3×10 min). Another adjacent slide was incubated with 0.1 mM Gd-9 and 10 mM hydrazine at 37° C. for 2 h, followed with 0.2 mM NaBH3CN for 2 hand washed with PBS (3×10 min). Similar procedures were carried out for human tissues. Slides were incubated with 0.1 mM Gd-9 at 37° C. for 2h, followed with 0.2 mM NaBH3CN for 2 h and washed with PBS (3×10 min).
Gadolinium mapping. Elemental images were collected from sections of liver tissue via laser ablation inductively coupled plasma mass spectrometry at the Biomedical National Elemental Imaging Resource (BNEIR). The instrumentation used was a New Wave Research 213 nm laser ablation system with a 10 cm^2 sample chamber, interfaced with an Agilent 7900 ICP-MS system. Samples were ablated in no-gas mode, with helium as a carrier gas at a flow rate of […]. The laser power was 65% and the frequency was 20 Hz. Ablation patterns consisted of continuous lines, with either a 12 μm or […] square beam and a scan speed of 120 μm sec^−1 or 200 μm sec^−1 respectively, as noted. The acquisitions time for gadolinium (mass 157) was 0.015 s. Elemental imaging data was quantified using metal-doped gelatin standards prepared at BNEIR and National Institute of Standards and Technology (NIST) certified references material 1515 (apple leaves). Data reduction was performed in the Iolite software application, using carbon (mass 13) as an internal standard to normalize the data.
The applicability of Gd-9 to assess fibrogenesis in human liver specimens was investigated. Resected human fibrotic/cirrhotic liver associated with NASH (n=5) and normal liver tissue (n=4) (Table C) were sectioned and stained for Lys^Ald.

With `NN1CCN(C(=O)CCC(C(=O)[O-])N2CCN(CC(=O)[O-])CCN(CC(=O)[O-])CCN(C(CCC(=O)N3CCN(N)CC3)C(=O)[O-])CC2)CC1.[Gd+3]` (stereo not drawn) [Gd-9, cis-1,4-Gd-(CHyd)2] the “fold higher liver to muscle ΔCNR in BDL rats compared to sham rats” value ([1]; 30 min) was 4 fold, the “fold higher ΔR1 in BDL rats compared to sham rats” value ([1]; 30 min p.i.) was 5 fold and the ΔCNR of liver ([1]; BDL rats (n = 7)) was 3.4±1.6. The “change of liver longitudinal relaxation rate ΔR1” value ([1]; BDL rats, 30 min p.i.) was 0.6±0.2, the ΔCNR of liver ([1]; Sham rats (n = 4)) was 0.6±0.2 and the ΔR1 ([1]; rat model, in vivo imaging) was 0.6 s⁻¹. The “change of liver longitudinal relaxation rate ΔR1” value ([1]; sham rats, 30 min p.i.) was 0.1±0.03, the “average Gd concentration in fibrotic human liver” value ([2]; across all samples) was 80.4±15.5 ppm and the “average Gd concentration in normal liver” value ([2]; across all samples) was 23.7±10.8 ppm. The “average Gd concentration in Lys^Ald positive areas” value ([2]; fibrotic human liver slices incubated with 0.1 mM probe) was 30-200 ppm Gd and the “average Gd concentration in regions with low Lys^Ald” value ([2]; human liver slices incubated with 0.1 mM probe) was less than 30 ppm Gd.
